Measurements as given in article PMC6274835, “Inhibitory and Inductive Effects of Opuntia ficus indica Extract and Its Flavonoid Constituents on Cytochrome P450s and UDP-Glucuronosyltransferases” (International Journal of Molecular Sciences, 2018).
Values belong to the compound of their own block, whether it stands above or below them.

Assays:
[1] = molecular target: T1, human pregnane X receptor (hPXR) (Homo sapiens, UniProt O75469); assay: PXR-mediated CYP3A4 promoter luciferase reporter assay in HepG2 cells; type: cell-based; settings: 24 h, vs DMSO; for induction in the PXR promoter activity: individual flavonoids 10 μM
T1 construct: expressed in transfected cells; host or cells: HepG2
T1 sequence (O75469 1-434): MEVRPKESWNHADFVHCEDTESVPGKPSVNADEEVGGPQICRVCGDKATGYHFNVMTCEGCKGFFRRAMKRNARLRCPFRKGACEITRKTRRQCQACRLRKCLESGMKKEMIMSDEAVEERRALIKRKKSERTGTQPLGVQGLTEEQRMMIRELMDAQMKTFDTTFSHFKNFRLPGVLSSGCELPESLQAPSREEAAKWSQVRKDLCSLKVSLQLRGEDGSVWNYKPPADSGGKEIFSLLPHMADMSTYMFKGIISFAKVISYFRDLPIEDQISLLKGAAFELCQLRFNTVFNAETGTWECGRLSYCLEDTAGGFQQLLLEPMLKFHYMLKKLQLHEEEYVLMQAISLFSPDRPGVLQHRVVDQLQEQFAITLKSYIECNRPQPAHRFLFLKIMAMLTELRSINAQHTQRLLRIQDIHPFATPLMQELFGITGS
Method: The human hepatocarcinoma cell line HepG2 was purchased from the […] (Manassas, VA, USA) and maintained in Dulbecco’s modified Eagle’s essential medium (DMEM) containing 10% fetal bovine serum, 1% nonessential amino acids, 1% GlutaMAX, and 1% antibiotics/antimycotics in a 5% CO2 atmosphere at 37 °C.
The expression plasmid for human constitutive androstane receptor (hCAR; pcDNA3-CAR) and pGL3-CYP2B6 luciferase construct were kindly provided by Dr. Hongbing Wang (University of Maryland, College Park, MD, USA). The plasmid for human pregnane X receptor (hPXR; pcDNA3-PXR) and pGL3-CYP3A4 luciferase construct were generous gifts from Masahiko Negishi (National Institutes of Health, Bethesda, MD, USA). HepG2 cells were seeded at a density of 1.5 × 10^5 cells/well into a 24-well plate. On the next day, the cells were transfected with 0.25 μg of either pcDNA3-CAR or pcDNA3-PXR and 0.25 μg of promoter luciferase plasmid (i.e., either pGL3-CYP2B6 or pGL3-CYP3A4) using Lipofectamine 2000 (Invitrogen, Carlsbad, CA, USA) according to the manufacturer’s instructions. To normalize the transfection efficiency, the pRL-TK plasmid (0.25 μg/well; Promega), which contains cDNA encoding Renilla luciferase, was cotransfected. The transfected cells were grown for 24 h, treated with various test materials, and incubated for an additional 24 h. The luciferase activities in the cell lysates were measured using the dual luciferase assay system (Promega) with a SpectraMax i3x (Molecular Devices, San Jose, CA, USA). Data are reported as a relative luciferase activity, which is the firefly luciferase reading divided by the Renilla luciferase reading.

CYP2C11 = assay: CYP inhibition assay in OVX rat liver microsomes; type: in vitro ADME; settings: for inhibition at 60 min, 10 μM: female, liver microsomes from ovariectomized (OVX) rats, pH 7.4, individual constituents 10 μM
Method: (§1) CYP-mediated metabolite formation from a substrate (200 μM each) or the formation of glucuronide conjugates from the UGT isozyme-specific substrate (200 μM each) was monitored to determine the isozyme activity. Typical incubation was performed with rat (1 mg/mL) or human (0.5 mg/mL) liver microsomes in the presence of an appropriate cofactor in a buffer system (pH 7.4) at 37 °C for 60 min as described previously.
(§2) The HPLC system (Agilent, Santa Clara, CA, USA) consisted of an Agilent 1200 binary pump, DAD, and Agilent 1260 autosampler. A Kinetex C18 reverse-phase column (5 μm, 4.6 × 150 mm) (Phenomenex, Torrance, CA, USA) protected by a KrudKatcher Ultra HPLC in-line filter (Phenomenex) was used for separation. HPLC conditions to determine the isozyme-specific metabolites and major constituents in OFIE are described in the Supplementary Materials. LC-electrospray (ESI)-tandem mass spectrometry (MS^2) analysis was employed to detect glucuronide products. An Linear Trap Quadropole (LTQ) linear ion trap mass spectrometer (Thermo Scientific, Waltham, MA, USA) with an ESI source was coupled with an Agilent 1200 HPLC system.

CYP3A1 [2] = assay: CYP inhibition assay in OVX rat liver microsomes; type: in vitro ADME; settings: female, liver microsomes from ovariectomized (OVX) rats, pH 7.4, individual constituents 10 μM
Method: as §1, §2

CYP1A2 = molecular target: T2, CYP1A2 (Homo sapiens, UniProt P05177); assay: CYP inhibition assay in human liver microsomes; type: in vitro ADME; settings: pooled human liver microsomes, individual constituents 10 μM; for inhibition at 60 min, 10 μM: pH 7.4
T2 construct: tissue Corning 452117; host or cells: pooled human liver microsomes (150 donors)
T2 sequence (P05177 1-516): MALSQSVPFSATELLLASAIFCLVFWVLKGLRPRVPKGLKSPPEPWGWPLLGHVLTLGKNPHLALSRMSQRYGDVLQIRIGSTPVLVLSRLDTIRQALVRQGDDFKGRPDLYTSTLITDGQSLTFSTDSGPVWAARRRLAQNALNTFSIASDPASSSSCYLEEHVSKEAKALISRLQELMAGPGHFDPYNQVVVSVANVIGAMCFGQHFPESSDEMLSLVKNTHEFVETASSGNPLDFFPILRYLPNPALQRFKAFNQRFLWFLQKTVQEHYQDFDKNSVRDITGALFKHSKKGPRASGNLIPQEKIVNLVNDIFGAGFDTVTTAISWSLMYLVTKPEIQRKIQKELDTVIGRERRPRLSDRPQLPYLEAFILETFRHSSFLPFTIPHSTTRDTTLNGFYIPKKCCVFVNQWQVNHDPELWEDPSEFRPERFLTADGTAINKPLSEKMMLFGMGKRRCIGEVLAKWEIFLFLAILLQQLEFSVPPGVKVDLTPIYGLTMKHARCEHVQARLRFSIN
Method: as §1
as §2, with “HPLC conditions to determine the isozyme-specific metabolites and major constituents in OFIE are described in the Supplementary Materials.” left out

[3] = molecular target: T3, human constitutive androstane receptor (hCAR) (Homo sapiens, UniProt Q14994); assay: CAR-mediated CYP2B6 promoter luciferase reporter assay in HepG2 cells; type: cell-based; settings: E2, concentration not given, 24 h, vs DMSO
T3 construct: expressed in transfected cells; host or cells: HepG2
T3 sequence (Q14994 1-352): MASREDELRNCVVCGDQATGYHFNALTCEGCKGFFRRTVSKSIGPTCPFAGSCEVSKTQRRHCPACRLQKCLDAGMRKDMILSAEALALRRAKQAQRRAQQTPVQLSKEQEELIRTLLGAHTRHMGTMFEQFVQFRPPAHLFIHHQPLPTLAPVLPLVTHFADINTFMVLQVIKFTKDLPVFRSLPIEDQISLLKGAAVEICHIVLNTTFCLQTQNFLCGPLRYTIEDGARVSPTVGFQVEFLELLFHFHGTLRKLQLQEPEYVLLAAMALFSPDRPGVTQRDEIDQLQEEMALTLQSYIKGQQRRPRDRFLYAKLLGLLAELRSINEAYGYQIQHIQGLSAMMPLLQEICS

UGT isoforms = assay: ex vivo activity assay in liver microsomes of orally treated OVX rats; design: species or system rat; settings: E2 0.5 mg/kg/day oral, 5 weeks
Method: as §2, with “Rats were bilaterally ovariectomized under 1.5-3% isoflurane anesthesia as described previously. […] Administration via forced gastric gavage was performed to ensure the exact amount of test compounds be dosed to each animal. […] Animals were weighed daily and dosage was changed weekly according to weight gain. Animals were euthanized by carbon dioxide inhalation to minimize aversion or distress. Liver microsomal fractions were prepared from livers of OVX rats using differential centrifugation as described previously. […] The HPLC” for “The HPLC”

CYP2B1 [4] = assay: as above; design: species or system rat; settings: E2 0.5 mg/kg/day oral, 5 weeks, control group set as 1
Method: as §2, with “Rats were bilaterally ovariectomized under 1.5-3% isoflurane anesthesia as described previously. […] Administration via forced gastric gavage was performed to ensure the exact amount of test compounds be dosed to each animal. […] Animals were weighed daily and dosage was changed weekly according to weight gain. Animals were euthanized by carbon dioxide inhalation to minimize aversion or distress. Liver microsomal fractions were prepared from livers of OVX rats using differential centrifugation as described previously. […] The HPLC” for “The HPLC”

CYP2D1 = assay: hepatic mRNA expression (qPCR) in OVX rats after 5-week oral administration; type: in vivo; settings: OVX rat liver; E2 0.5 mg/kg/day oral, 5 weeks; vs vehicle control
Method: (§3) Rats were bilaterally ovariectomized under 1.5–3% isoflurane anesthesia as described previously. […] Administration via forced gastric gavage was performed to ensure the exact amount of test compounds be dosed to each animal. […] Animals were weighed daily and dosage was changed weekly according to weight gain. Animals were euthanized by carbon dioxide inhalation to minimize aversion or distress. Liver microsomal fractions were prepared from livers of OVX rats using differential centrifugation as described previously.
(§4) The total RNA was isolated from homogenized rat liver tissue using a Nucleospin RNA/Protein kit (Macherey-Nagel, Düren, Germany) according to the manufacturer’s manual. The cDNA was synthesized from the total RNA (2 μg) using oligo (dT) and M-MLV reverse transcriptase (Promega, Madison, WI, USA). A qPCR analysis was performed to determine the mRNA levels of both hepatic CYP and UGT isozymes on an ABI Prism 7500 Sequence Detection System (Applied Biosystems, Foster City, CA, USA) using SYBR Green PCR Master Mix (Toyobo, Osaka, Japan) and a gene-specific primer set (Table S1 for primer sequences).

UGT2B1 = assay: as above; type: in vivo; settings: OVX rat liver; E2 0.5 mg/kg/day and both doses of OFIE (250, 500 mg/kg/day) oral, 5 weeks; range over the groups
Method: as §3, §4

CYP3A1 [5] = assay: as above; type: in vivo; settings: OVX rat liver; E2 0.5 mg/kg/day oral, 5 weeks; vs vehicle control
Method: (§5) After 14 days of endogenous hormonal decline, rats were randomly divided into several groups (n = 6 per group) and subjected to oral administration of olive oil (control), E2 (0.5 mg/kg/day, positive control) or OFIE (250 and 500 mg/kg/day) via gastric gavage for 5 weeks. […] Administration via forced gastric gavage was performed to ensure the exact amount of test compounds be dosed to each animal. […] Animals were weighed daily and dosage was changed weekly according to weight gain.
(§6) The total RNA was isolated from homogenized rat liver tissue using a Nucleospin RNA/Protein kit (Macherey-Nagel, Düren, Germany) according to the manufacturer’s manual. The cDNA was synthesized from the total RNA (2 μg) using oligo (dT) and M-MLV reverse transcriptase (Promega, Madison, WI, USA). A qPCR analysis was performed to determine the mRNA levels of both hepatic CYP and UGT isozymes on an ABI Prism 7500 Sequence Detection System (Applied Biosystems, Foster City, CA, USA) using SYBR Green PCR Master Mix (Toyobo, Osaka, Japan) and a gene-specific primer set (Table S1 for primer sequences). The ABI 7500 Software (v2.0.6, Foster City, CA, USA) was used for the estimation of CT. The 2^−ΔΔCt method was applied for relative quantification. […] The results were expressed as fold change when the gene expression level in the vehicle control-treated sample was set as 1.

CYP2B1 [6] = assay: as above; type: in vivo; settings: OVX rat liver; E2 0.5 mg/kg/day oral, 5 weeks; vs vehicle control
Method: as §5, §6

CYP3A4 = molecular target: T4, CYP3A4 (Homo sapiens, UniProt P08684); design: method as in earlier work; settings: range given jointly for quercetin and kaempferol on CYP1A2 and CYP3A4; Von Moltke et al.; read-out: IC50, inhibition of CYP3A4; cited from earlier work
T4 construct: tissue Corning 452117; host or cells: pooled human liver microsomes (150 donors)
T4 sequence (P08684 whole entry): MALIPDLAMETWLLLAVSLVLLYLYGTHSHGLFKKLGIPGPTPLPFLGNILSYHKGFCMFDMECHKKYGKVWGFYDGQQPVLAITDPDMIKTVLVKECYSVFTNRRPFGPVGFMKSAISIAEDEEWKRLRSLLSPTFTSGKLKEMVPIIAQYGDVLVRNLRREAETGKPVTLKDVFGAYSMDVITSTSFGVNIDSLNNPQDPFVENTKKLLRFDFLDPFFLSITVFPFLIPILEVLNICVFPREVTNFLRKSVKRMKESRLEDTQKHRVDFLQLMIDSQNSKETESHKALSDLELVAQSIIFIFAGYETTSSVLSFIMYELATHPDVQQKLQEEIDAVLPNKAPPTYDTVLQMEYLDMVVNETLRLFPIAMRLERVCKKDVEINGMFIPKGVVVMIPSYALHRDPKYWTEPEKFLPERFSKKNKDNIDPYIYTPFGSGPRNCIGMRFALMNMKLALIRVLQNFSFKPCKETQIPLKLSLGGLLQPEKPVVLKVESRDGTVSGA

Compound: C[C@@H]1O[C@@H](OC[C@H]2O[C@@H](Oc3c(-c4ccc(O)c(O)c4)oc4cc(O)cc(O)c4c3=O)[C@H](O)[C@@H](O)[C@@H]2O)[C@H](O)[C@H](O)[C@H]1O [rutin]
induction in the PXR promoter activity [1]: significant induction

inhibition at 60 min, 10 μM (CYP2C11): 18% | inhibition at 60 min, 10 μM (CYP3A1 [2]): 10% | inhibition at 60 min, 10 μM (CYP1A2): 31%
Compound: O=c1c(O)c(-c2ccc(O)c(O)c2)oc2cc(O)cc(O)c12 [quercetin]

Compound: COc1cc(-c2oc3cc(O)cc(O)c3c(=O)c2O)ccc1O [isorhamnetin]
inhibition of rat CYP2C11 activity (CYP2C11; individual constituents 10 μM): did not result in a significant inhibition | inhibition at 60 min, 10 μM (CYP1A2): 40%

increase in CAR-mediated CYP2B6 reporter activity [3]: 4.8 fold | PXR-mediated CYP3A4 reporter activity ([1]; E2, concentration not given): did not alter | increase in activity of CYP2B1 (CYP2B1 [4]): 2.7 fold | increase in mRNA expression of CYP2D1 (CYP2D1): 2.6 fold | increase in mRNA expression of CYP3A1 (CYP3A1 [5]): 12 fold | increase in mRNA expression of CYP2B1 (CYP2B1 [6]): 7.7 fold
Compound: C[C@]12CC[C@@H]3c4ccc(O)cc4CC[C@H]3[C@@H]1CC[C@@H]2O [E2, 17β-Estradiol]
change in activities of all UGT isoforms examined (UGT isoforms): no changes | increased expression of UGT2B1 mRNA (UGT2B1): 3.8–6.5 folds

inhibition at 60 min, 10 μM (CYP2C11): 10% | inhibition at 60 min, 10 μM (CYP3A1 [2]): 20%
Compound: O=c1c(O)c(-c2ccc(O)cc2)oc2cc(O)cc(O)c12 [kaempferol]
IC50 (CYP3A4): 10 to 16 µM

induction in the PXR promoter activity [1]: significant induction | inhibition at 60 min, 10 μM (CYP3A1 [2]): 10% | inhibition of human CYP1A2 activity (CYP1A2): did not significantly inhibit
Compound: COc1cc(-c2oc3cc(O)cc(O)c3c(=O)c2O[C@@H]2O[C@H](CO[C@@H]3O[C@@H](C)[C@H](O)[C@@H](O)[C@H]3O)[C@@H](O)[C@H](O)[C@H]2O)ccc1O [narcissin]
